The NIST ThermoML archive (doi:10.1016/j.jct.2008.07.008)
± gives the expanded uncertainty stated by the source.

Columns and labels:
[1] = refractive index (Na D-line) (dimensionless); conditions: 101.33 kPa, Liquid, Standard Abbe refractometry
[2] = refractive index (Na D-line) (dimensionless); xn = mol fraction of the nth substance listed; conditions: 101 kPa, Liquid, Standard Abbe refractometry

N#Cc1ccccc1 [benzonitrile]
[1]
Conditions | refractive index
277.43 K | 1.5321 ± 0.0004
278.33 K | 1.5318 ± 0.0004
279.49 K | 1.5312 ± 0.0004
280.36 K | 1.5307 ± 0.0004
280.38 K | 1.5307 ± 0.0004
280.86 K | 1.5305 ± 0.0004
281.97 K | 1.5299 ± 0.0004
284.13 K | 1.5289 ± 0.0004

CCCCCCCC [octane]
[1]
Conditions | refractive index
277.8 K | 1.404 ± 0.0004
279.68 K | 1.4032 ± 0.0004
280.36 K | 1.4028 ± 0.0004
280.51 K | 1.4027 ± 0.0004
281.66 K | 1.4021 ± 0.0004
282.65 K | 1.4017 ± 0.0004
283.88 K | 1.4012 ± 0.0004
284.73 K | 1.4007 ± 0.0004

N#Cc1ccccc1 [benzonitrile] + CCCCCCCC
[2]
Conditions | refractive index
280.36 K, x1 = 0.092 | 1.4104 ± 0.0004
280.36 K, x1 = 0.244 | 1.4248 ± 0.0004
280.36 K, x1 = 0.344 | 1.4353 ± 0.0005
280.36 K, x1 = 0.558 | 1.4613 ± 0.0005
280.36 K, x1 = 0.644 | 1.4726 ± 0.0005
280.36 K, x1 = 0.762 | 1.4901 ± 0.0005
280.36 K, x1 = 0.821 | 1.4996 ± 0.0005
280.36 K, x1 = 0.927 | 1.5176 ± 0.0005
280.36 K, x1 = 1 | 1.5307 ± 0.0004
282.93 K, x1 = 0.558 | 1.4599 ± 0.0005
283.35 K, x1 = 0.344 | 1.4339 ± 0.0005
283.66 K, x1 = 0.558 | 1.4597 ± 0.0005
283.67 K, x1 = 0.344 | 1.4337 ± 0.0005
284.57 K, x1 = 0.344 | 1.4333 ± 0.0005
284.78 K, x1 = 0.558 | 1.4591 ± 0.0005
285.65 K, x1 = 0.344 | 1.4327 ± 0.0005
285.74 K, x1 = 0.558 | 1.4586 ± 0.0005
286.64 K, x1 = 0.558 | 1.4583 ± 0.0005
286.73 K, x1 = 0.344 | 1.4322 ± 0.0005
287.64 K, x1 = 0.558 | 1.4578 ± 0.0005
287.77 K, x1 = 0.344 | 1.4318 ± 0.0005
288.61 K, x1 = 0.558 | 1.4574 ± 0.0005
288.82 K, x1 = 0.344 | 1.4313 ± 0.0005

CCCCCCCC [octane] + N#Cc1ccccc1
Conditions | refractive index
[2], 280.36 K, x2 = 0 | 1.4028 ± 0.0004
